Converted amounts (≈) assume the structure as drawn. Counter-ions that a name gives are not always drawn. Like-named read-outs stand apart in the source and are kept apart here. Residues, ends and D or L forms follow the SMILES beside them.
Assays:
[1] = test system: Acinetobacter baumannii (ATCC19606); assay: microbe, parasite or virus in culture
From the text: (§1) Viba 11, originally discovered in Viola baoshanensis[39] and found in other plants such as Viola tricolor[40], Viola betonicifolia, and Viola philippica, lacks biological activity studies. […] All purified cyclotides underwent antibacterial testing against Gram-positive bacterium Staphylococcus aureus (CMCC(B)26003-2-10) and Bacillus subtilis (CMCC(B)63501), Gram-negative bacteria, including Acinetobacter baumannii (ATCC19606), Escherichia coli (CMCC(B)44102-2-6), and Salmonella paratyphi (CMCC(B)50094-2-9).
(§2) Bacterial fluids are cultured overnight at 37 °C. The next day, the bacterial liquids are diluted to a concentration of 10^6 CFU/ml. Prepare different concentrations of cyclotide drugs and kanamycin sulfate in advance, and sequentially add the drugs and bacterial liquid to the 96-well plate. Negative controls consisted of sterile water and bacterial liquid. The plate is cultured overnight at 37 °C and observe whether the solution remains clear to see the growth of the bacterial suspension. Each test was performed three times at least.

[2] = test system: Bacillus subtilis (CMCC(B)63501); assay: microbe, parasite or virus in culture
From the text: as §1, §2

[3] = test system: Escherichia coli (CMCC(B)44102-2-6); assay: microbe, parasite or virus in culture
From the text: as §1, §2

[4] = test system: Staphylococcus aureus (CMCC(B)26003-2-10); assay: MIC, broth dilution in 96-well plate; format: cell-based; conditions: 10^6 CFU/ml, overnight 37 °C, visual clarity, performed at least three times
From the text: (§3) Cycloviolacin O2, known for its antimicrobial, hemolytic, and insecticidal activities, has been more extensively investigated[4],[20],[36]–[38]. Viba 11, originally discovered in Viola baoshanensis[39] and found in other plants such as Viola tricolor[40], Viola betonicifolia, and Viola philippica, lacks biological activity studies. These two cyclotides and vija 10 are high in content and easy to purify, and cycloviolacin O2 can also be used as a positive control to conduct activity study. In addition, few vija12 and 31 were extracted for antibacterial experiments. All purified cyclotides underwent antibacterial testing against Gram-positive bacterium Staphylococcus aureus (CMCC(B)26003-2-10) and Bacillus subtilis (CMCC(B)63501), Gram-negative bacteria, including Acinetobacter baumannii (ATCC19606), Escherichia coli (CMCC(B)44102-2-6), and Salmonella paratyphi (CMCC(B)50094-2-9). […] In addition, the MICs of viba 11, cycloviolacin O2 and vija 10 against B. subtilis were respectively 5.4 μM, 2.1 μM and 14.3 μM (Table 1). […] Therefore, it is hypothesized that the lower antimicrobial activity of vija 10 may be attributed to the presence of only one Lys residue in loop 5.
as §2

[5] = test system: Salmonella paratyphi (CMCC(B)50094-2-9); assay: MIC, broth dilution in 96-well plate; format: cell-based; conditions: 10^6 CFU/ml, overnight 37 °C, visual clarity, performed at least three times
From the text: as §3, §2

Acinetobacter baumannii = assay: Time killing kinetics; format: cell-based; conditions: about 10^6 CFU/mL, LB, 37 °C, colony count
Description: In this study, we investigated the time-kill kinetics characteristics of plant cyclotides against bacteria. […] It is worth noting that due to experimental constraints, there was a slight discrepancy of a few minutes between theoretical 0 h and actual 0 h. […] Furthermore, we also conducted time-kill kinetics studies using vija 10 against B. subtilis.
Figure 4 (A) The Acinetobacter baumannii time killing kinetics of cycloviolacin O2 at concentration of 1 MIC, 2 MIC, 4 MIC and 8 MIC at 37 °C. (B) The Bacillus subtilis time killing kinetics of vija 10 at concentration of 1 MIC, 2 MIC, 4 MIC at 37 °C. Each test was performed three times at least.
Incubate A. baumannii and B. subtilis in fresh nutrient LB broth at 37 °C until logarithmic growth stage, then dilute to approximately 10^6 CFU/mL, and incubate with cycloviolacin O2 at concentrations of 1 MIC, 2 MIC, 4 MIC, 8 MIC with A. baumannii and vija 10 at concentrations of 1 MIC, 2 MIC, 4 MIC with B. subtilis respectively. Taking the mixture at time points of 0 h, 0.5 h, 1 h, 1.5 h and 2 h, dilute and coat it to solid medium for 24 h. Count the number of colonies on solid culture medium. Each test was performed three times at least. Plotting a line graph with time on the x-axis and bacterial survival on the y-axis using GraphPad Prism 8. Statistical analysis of bacterial viability at different time points to determine the bactericidal and bacteriostatic effects of cyclotides.

[6] = test system: THLE-3 (human hepatocytes cells); assay: MTT cytotoxicity assay; format: cell-based; conditions: THLE-3 cells, 48 h incubation, mean ± SD of at least three repeats
Description: (§4) Five types of cells, namely A549 (human non-small cell lung cancer cells), T24 (human bladder cancer cells), 4T1 (mouse breast cancer cells), 7402 (human hepatocellular carcinoma cells), and THLE-3 (human hepatocytes cells), are selected for evaluating the cytotoxicity of viba 11, cycloviolacin O2, and vija 10 using the MTT (3-(4,5-dimethylthiazol-2-yl)-2,5-diphenyltetrazolium bromide) reagent.
(§5) To determine cell toxicity using MTT assay, cells are seeded in a 96-well plate and cultured for 24 h. After that, different concentrations of cyclotides are added to the cells and incubated for 48 h. MTT is then added to react with the cells, and after 4 h, the reaction is terminated by discarding the supernatant and adding dimethyl sulfoxide for resuspension. The absorbance at 570 nm is measured after 10 min of shaking at room temperature. Each test was performed three times at least. The data were analyzed using GraphPad Prism 8. During this process, the drug concentrations were transformed into logarithmic form with a base of 10 and plotted on the x-axis. Cell viability (%) = [A (cyclotides) − A (blank)]/[A (control) − A (blank)] × 100, which was represented on the y-axis. Using this method, we determined the IC50 value for each experiment, with each experiment repeated at least three times and the mean value calculated. The error was represented by the standard deviation of the IC50 obtained from three repetitions.

[7] = test system: 4T1 (mouse breast cancer cells); assay: MTT cytotoxicity assay; format: cell-based; conditions: 4T1 cells, 48 h incubation, mean ± SD of at least three repeats
Description: as §4, §5

[8] = test system: 7402 (human hepatocellular carcinoma cells); assay: MTT cytotoxicity assay; format: cell-based; conditions: 7402 cells, 48 h incubation, mean ± SD of at least three repeats
Description: as §4, §5

[9] = test system: T24 (human bladder cancer cells); assay: MTT cytotoxicity assay; format: cell-based; conditions: 48 h incubation, mean ± SD of at least three repeats
Description: as §4, §5

[10] = test system: A549 (human non-small cell lung cancer cells); assay: MTT cytotoxicity assay; format: cell-based; conditions: 48 h incubation, mean ± SD of at least three repeats
Description: as §4, §5

[11] = Acinetobacter baumannii ATCC19606, 10^6 CFU/ml, 96-well plate, overnight 37 °C, visual clarity, performed at least three times
[12] = 10^6 CFU/ml, 96-well plate, overnight 37 °C, visual clarity, performed at least three times

CC[C@H](C)[C@@H]1NC(=O)[C@H](Cc2ccc(O)cc2)NC(=O)[C@H](CO)NC(=O)CNC(=O)[C@H](CC(N)=O)NC(=O)[C@H](CCCCN)NC(=O)[C@H](CCCCN)NC(=O)[C@@H]2CSSC[C@@H]3NC(=O)[C@H](CCCCN)NC(=O)[C@H](CC(C)C)NC(=O)[C@H](CCCCN)NC(=O)[C@H](C(C)C)NC(=O)[C@@H]4CSSC[C@H](NC(=O)[C@H]([C@@H](C)O)NC(=O)[C@H](CSSC[C@H](NC(=O)[C@H](CO)NC1=O)C(=O)NCC(=O)N[C@@H](CCC(=O)O)C(=O)N[C@@H]([C@@H](C)O)C(=O)N4)NC(=O)CNC(=O)[C@@H]1CCCN1C(=O)[C@H]([C@@H](C)O)NC(=O)[C@H](Cc1ccc(O)cc1)NC3=O)C(=O)N[C@@H]([C@@H](C)O)C(=O)N[C@@H](Cc1c[nH]c3ccccc13)C(=O)N1CCC[C@H]1C(=O)N[C@@H](C)C(=O)N2 [vija 12] (HELM PEPTIDE1{A.C.K.K.N.G.S.Y.I.S.C.G.E.T.C.V.K.L.K.C.Y.T.P.G.C.T.C.T.W.P}$PEPTIDE1,PEPTIDE1,2:R3-20:R3|PEPTIDE1,PEPTIDE1,11:R3-25:R3|PEPTIDE1,PEPTIDE1,15:R3-27:R3|PEPTIDE1,PEPTIDE1,1:R1-30:R2$$$V2.0)
MIC [1, 11]: 14.9 µM (≈ 48 µg/mL)

NC[C@H]1O[C@H](O[C@H]2[C@H](O)[C@@H](O[C@H]3O[C@H](CO)[C@@H](O)[C@H](N)[C@H]3O)[C@H](N)C[C@@H]2N)[C@H](O)[C@@H](O)[C@@H]1O [Kanamycin sulfate, reference compound]
MIC [2]: 4 µM
MIC ([1]; Acinetobacter baumannii, ATCC19606): 8 µM
MIC [3]: 8 µM

CC(C)C[C@@H]1NC(=O)[C@@H]2CCCN2C(=O)[C@H](Cc2ccc(O)cc2)NC(=O)[C@H](CCCCN)NC(=O)[C@H](C)NC(=O)[C@@H]2CSSC[C@@H]3NC(=O)[C@H]([C@@H](C)O)NC(=O)[C@H](CCC(=O)O)NC(=O)CNC(=O)[C@@H]4CSSC[C@H](NC(=O)CNC(=O)[C@@H]5CCCN5C(=O)[C@H]([C@@H](C)O)NC(=O)[C@H](Cc5ccccc5)NC(=O)[C@H](CSSC[C@H](NC1=O)C(=O)N[C@@H](CO)C(=O)N[C@@H](CCCCN)C(=O)N[C@@H](CC(N)=O)C(=O)NCC(=O)N[C@@H](CO)C(=O)N[C@@H](C(C)C)C(=O)N[C@@H]([C@@H](C)O)C(=O)NCC(=O)N4)NC(=O)[C@H](CCCCN)NC(=O)[C@H](Cc1ccccc1)NC(=O)[C@H](CCCCN)NC(=O)[C@H](Cc1ccccc1)NC3=O)C(=O)N[C@@H](CCCCN)C(=O)N2 [vija 31] (HELM PEPTIDE1{A.K.Y.P.L.C.S.K.N.G.S.V.T.G.C.G.E.T.C.F.K.F.K.C.F.T.P.G.C.K.C}$PEPTIDE1,PEPTIDE1,6:R3-24:R3|PEPTIDE1,PEPTIDE1,15:R3-29:R3|PEPTIDE1,PEPTIDE1,19:R3-31:R3|PEPTIDE1,PEPTIDE1,1:R1-31:R2$$$V2.0)
MIC [1, 11]: 14.9 µM (≈ 48.9 µg/mL)

CC[C@H](C)[C@@H]1NC(=O)[C@H](C)NC(=O)[C@H](CO)NC(=O)[C@H](CO)NC(=O)[C@H]([C@@H](C)CC)NC(=O)[C@@H]2CSSC[C@@H]3NC(=O)[C@H](C(C)C)NC(=O)[C@H](CCCCN)NC(=O)[C@H](CO)NC(=O)[C@H](CCCCN)NC(=O)[C@@H]4CSSC[C@H](NC(=O)[C@H](CO)NC(=O)[C@H](CCC(=O)O)NC(=O)CNC(=O)[C@H](CSSC[C@H](NC(=O)CNC1=O)C(=O)N[C@@H](CO)C(=O)N4)NC(=O)[C@@H]1CCCN1C(=O)[C@H]([C@@H](C)CC)NC(=O)CNC(=O)[C@H](CC(N)=O)NC(=O)[C@H](CCCNC(=N)N)NC(=O)[C@H](Cc1ccc(O)cc1)NC3=O)C(=O)N[C@@H](C(C)C)C(=O)N[C@@H](Cc1c[nH]c3ccccc13)C(=O)N[C@@H]([C@@H](C)CC)C(=O)N1CCC[C@H]1C(=O)N2 [cycloviolacin O2, reference compound] (HELM PEPTIDE1{A.I.G.C.S.C.K.S.K.V.C.Y.R.N.G.I.P.C.G.E.S.C.V.W.I.P.C.I.S.S}$PEPTIDE1,PEPTIDE1,4:R3-18:R3|PEPTIDE1,PEPTIDE1,6:R3-22:R3|PEPTIDE1,PEPTIDE1,11:R3-27:R3|PEPTIDE1,PEPTIDE1,1:R1-30:R2$$$V2.0)
MIC [4]: > 16.8 µM
MIC [5]: > 16.8 µM
time of treatment to complete eradication of A. baumannii (Acinetobacter baumannii; 4 MIC): 2 h
time of treatment to complete eradication of A. baumannii (Acinetobacter baumannii; 8 MIC): 1.5 h
IC50 [6]: 1210 ± 50 nM
IC50 [7]: 162 ± 10 nM
IC50 [8]: 1332 ± 10 nM
IC50 [9]: 1690 ± 160 nM
IC50 [10]: 149 ± 30 nM
MIC [2, 12]: 2.1 µM (≈ 6.6 µg/mL)
MIC [1, 11]: 4.2 µM (≈ 13.2 µg/mL)
MIC [3, 12]: > 16.8 µM

From article PMC11056381, “Characterization and evaluation of cytotoxic and antimicrobial activities of cyclotides from Viola japonica” (Scientific Reports, 2024)
